Drawing on article PMC6265484, “Homodimerization regulates an endothelial specific signature of the SOX18 transcription factor” (Nucleic Acids Research, 2018), this text covers IC50 for one compound.

The test concerns the target T1, SOX18 (GFP-SOX18 / SOX18-Cherry-myc homodimer) (Homo sapiens, UniProt P35713).
T1 construct: full-length human SOX18, synthetic gene; N-terminal GFP-tagged and C-terminal Cherry-cMyc-tagged copies co-expressed cell-free in Leishmania tarentolae extract, not purified; homodimer
T1 sequence (P35713 1-384): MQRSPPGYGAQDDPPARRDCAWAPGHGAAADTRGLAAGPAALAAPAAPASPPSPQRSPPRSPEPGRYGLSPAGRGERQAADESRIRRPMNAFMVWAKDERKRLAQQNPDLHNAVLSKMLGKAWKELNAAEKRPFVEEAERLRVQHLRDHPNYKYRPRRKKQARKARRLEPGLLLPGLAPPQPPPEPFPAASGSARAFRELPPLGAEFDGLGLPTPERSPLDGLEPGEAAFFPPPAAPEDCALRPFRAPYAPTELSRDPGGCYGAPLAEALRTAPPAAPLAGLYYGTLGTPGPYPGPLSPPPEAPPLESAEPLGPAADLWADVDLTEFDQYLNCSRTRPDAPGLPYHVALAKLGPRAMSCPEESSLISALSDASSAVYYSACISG
Kind of test: AlphaScreen disruption of SOX18-SOX18 homodimer in cell-free lysate. The format is biochemical. As to conditions: protein-protein interaction disruption; no IR5 DNA; buffer B (25 mM HEPES, 50 mM NaCl, 0.001% NP40, 0.001% casein); 1 h; 0.7% DMSO.

pIC50: −log10 of the molar value.

`O=C(O)c1c(O)cccc1CCc1ccc2ccccc2c1` [Sm4] had a pIC50 of roughly 5.52.

What is called pIC50 is the IC50 on a negative log10 scale, so that one unit is a factor of ten. Low readings indicate a high IC50, high ones a low IC50.
